In patent US20140263071A1, “METHOD FOR COLLECTING METALS” (CHEMEC OY AB, priority 2011, published 2014):
Where two headings read alike, the source gives them in different places.

What was measured:
[1] = Separation of silver with complexation agent by HCl elution (Example 20); settings: for Concentration after 1a: mixture of Ag^+, 1a 10 g, 48 h; for End concentration in 1a: after HCl elutions; for Metals in 0.01M HCl: elution of loaded 1a with 0.01 M HCl (60 ml); for Metals in 0.1M HCl: elution of loaded 1a with 0.1 M HCl (60 ml); for Metals in 1M HCl: elution of loaded 1a with 1 M HCl (60 ml)
Description: A mixture of Cu(NO3)2×3H2O (20 ml, 0.1 M), AgNO3 (20 ml, 0.1 M), Fe(NO3)3 (20 ml, 0.1 M), water (40 ml) and 1a (10 g) were stirred for 48 h at room temperature. Solids were collected to sintered disc (porosity G-4), washed with water (60 ml) and eluted with 0.01 M (60 ml), 0.1 M (60 ml) and 1 M (60 ml) HCl solutions. Amounts of each metals in eluted HCl solutions were determined by AAS using standard procedures.

[2] = Recycling and regeneration of solid bisphosphonate material (Example 27); settings: 1a 700 mg
Description: Compound 1a (700 mg) was weighed on sintered disc (porosity G-4) and aqueous CuCl2x2 H2O (20 ml) solution containing ca. 47 700 ppm of copper was passed slowly through the powder under vacuum. […] After the sintered disc was dry, aqueous HCl (25 ml, 2M) was passed slowly through the sintered disc. During this regeneration process solid bisphoshonate material on sintered disc turned from blue to white and filtered HCl solution was pale blue. The same procedure using the original 1a powder on sintered disc and a fresh CuCl2x2 H2O (20 ml) solution was repeated 20 times. The copper concentrations measured by AAS of the filtered HCl solution was 2294 ppm, 859 ppm and 713 ppm after first, 10th and 20th regeneration cycle, respectively. The amount of 1a after the last regeneration step was 630 mg (90% of the original amount).

[3] = Effect of complexation agent amount on expulsion percent (Example 11); settings: Ca^2+ 2 ppm, pH 2.9
Description: A water solution (110 ml) containing known amount of single cationic element or elements, typically 0.5-200 ppm, was prepared from Merch Titrisol® standard solution. After adjusting pH by using acid (e.g. HCl or HNO3) or base (e.g. NaOH) to desired initial value, sample A (10 ml) was taken followed by adding 100 mg of selected solid complexation agent. The mixture was stirred at room temperature for 24 h and sample B (10 ml) was taken. Samples A and B were filtrated separately trough 0.2 μm syringe filter and the concentration of the studied element or elements in both solution was determined by using atomic absorption spectrophotometer. The expulsion percent was determined from the concentration differences between the sample solutions A and B.
Effect of amount of complexation agent 1a to expulsion percent was tested with 2.0 ppm calcium (Ca^2+) solution. A solution (100 ml) containing 2.0 ppm of calcium was stirred for 24 h with desired amount of complexation agent 1a (25 to 301 mg) at pH 2.9. Expulsions percent were determined for each solution using the general procedure and the results are collected in Table 6.

[4] = Solubility of the compounds, molybdenum blue method, UV/Vis 880 nm (Example 6); format: physicochemical; settings: saturated aqueous solution
Description: The low solubility is achieved by using long carbon chain(s) or aromatic ring(s) in the bisphosphonate structure I. Advantageously, compound I contains 7-16 carbon atoms either in chain, branched chain or cyclic structure or in combination of these structural units between A and X, and preferably in the chain starting from the P-C-P bridging carbon and the number of heteroatomic functional groups excluding the phosphorous functionalities are limited to two or three groups. The solubility decreases even more if compound I contains functional groups which are capable to form twitter ions with each other. Typical examples of twitter ions are acids (e.g., —CO2H or —PO3H2) and bases (amines) in the same molecule. Solubilities of selected bisphosphonate compounds I were determined with UV/Vis spectrophotometer at 880 nm using molybdenum blue method (Finnish Standard Association SFS 3026: Determination of phosphate in water. Finnish Standard Association SFS, Helsinki Finland, 1986).
Solubilities of selected compounds were determined with UV/Vis Spectrophotometer at 880 nm using molybdenum blue method from saturated aqueous samples solutions (Finnish Standard Association SFS 3026: Determination of phosphate in water. Finnish Standard Association SFS, Helsinki Finland, 1986).

[5] = Removal of Cr^3+ from acidic solution, TS 4 diluted 1:100 (Example 19); settings: TS 4 diluted 1:100, pH 3.67, 1.0 g agent in 50 ml, 24 h
Description: A test solution containing 24000 mg/l of Na^+; 50-2000 mg/l of Ca^2+, Cr^3+, K^+ and Mg^2+; and trace amount of Al^3+, Fe^2/3+, Mn^2+, Ni^2+, Sr^2+, V^4+, and Zn^2+ cations were prepared.
TS 4 was diluted to 1:100 with water, pH (3.67) of the solution was determined and sample A was taken. A part (50 ml) of the diluted solution was treated with 1a, 6d or 7a (1.0 g) for 24 h with stirring at room temperature. After filtration trough 0.2 μm syringe filter, the expulsion per for Cr(III) was determined compared to original solution A. The results of expulsion per cents of Cr^3+ and some other elements are given in Table 13.

## NCCCCCCCCCCC(O)(P(=O)(O)O)P(=O)(O)O [Compound 1a, 11-Amino-1-hydroxyundecane-1,1-diyldiphosphonic acid]
[1]; Ag^+
  Amounts of metals in 1a: 1320 mg/L
  End concentration in 1a: 1300 mg/L
  Metals in 0.01M HCl: 10 mg/L
  Metals in 0.1M HCl: 0 mg/L
  Metals in 1M HCl: 10 mg/L
[1]; Ag^+, initial 2050 mg/l, Cu^2+, Fe^3+
  Concentration after 1a: 730 mg/L
[1]; Cu^2+
  Amounts of metals in 1a: 210 mg/L
  End concentration in 1a: 0 mg/L
  Metals in 0.01M HCl: 0 mg/L
  Metals in 0.1M HCl: 10 mg/L
  Metals in 1M HCl: 200 mg/L
[1]; Cu^2+, initial 1310 mg/l, Cu^2+, Fe^3+
  Concentration after 1a: 1100 mg/L
[1]; Fe^3+
  Amounts of metals in 1a: 80 mg/L
  End concentration in 1a: 0 mg/L
  Metals in 0.01M HCl: 10 mg/L
  Metals in 0.1M HCl: 10 mg/L
  Metals in 1M HCl: 60 mg/L
[1]; Fe^3+, initial 1040 mg/l, Cu^2+, Fe^3+
  Concentration after 1a: 960 mg/L
[2]; after 10th regeneration cycle
  copper concentration of the filtered HCl solution: 859 ppm
[2]; after 20th regeneration cycle
  copper concentration of the filtered HCl solution: 713 ppm
[2]; after first regeneration cycle
  copper concentration of the filtered HCl solution: 2294 ppm
[3]; 25 mg of 1a in 100 ml
  Expulsion [%]: 41.3%
[3]; 52 mg of 1a in 100 ml
  Expulsion [%]: 45.9%
[3]; 75 mg of 1a in 100 ml
  Expulsion [%]: 53.6%
[3]; 101 mg of 1a in 100 ml
  Expulsion [%]: 59.4%
[3]; 125 mg of 1a in 100 ml
  Expulsion [%]: 63.6%
[3]; 150 mg of 1a in 100 ml
  Expulsion [%]: 67.1%
[3]; 175 mg of 1a in 100 ml
  Expulsion [%]: 70.2%
[3]; 200 mg of 1a in 100 ml
  Expulsion [%]: 71.0%
[3]; 225 mg of 1a in 100 ml
  Expulsion [%]: 76.6%
[3]; 250 mg of 1a in 100 ml
  Expulsion [%]: 79.6%
[3]; 275 mg of 1a in 100 ml
  Expulsion [%]: 85.6%
[3]; 301 mg of 1a in 100 ml
  Expulsion [%]: 83.5%
[4]
  solubility: 59 mg/L
[4]; read-out: mg/l P (solubility calculated as elemental phosphorus)
  solubility: 10 mg/L
[5]; Ca^2+
  Expulsion [%] Ca^2+: 67%
[5]; Cr^3+
  Expulsion [%] Cr^3+: 91%
[5]; K^+
  Expulsion [%] K^+: 36%
[5]; Mg^2+
  Expulsion [%] Mg^2+: 74%
[5]; Na^+
  Expulsion [%] Na^+: 14%
[5]; Zn^2+
  Expulsion [%] Zn^2+: >39^1) %
